Measured values from article PMC8072975 (Pharmaceutics, 2021).
pIC50: −log10 of the molar value. Where two headings read alike, the source gives them in different places.

Assays:
[1] = mean ± SD, n = 3; for Stability 4℃, 5-D (%): Table S1
Procedure: The HPLC analyses were performed on an Agilent Technology 1260 infinity system (Agilent Technology Inc., Waldbronn, Germany) equipped with an Agilent ChemStation software Rev. B.04.03-SP2 (105), a binary pump, a degasser, an autosampler, a thermostatted sample reservoir, a thermostatted column compartment, and a UV-detector. A Capcell-pak C18 UG120 column (4.6 mm × 250 mm, 5 μm, Osaka Soda Co. Ltd., Osaka, Japan) was used as an analytical column. The mobile phase was composed of 10 mM NaH2PO4 (pH 1.61–1.63) and 100% ACN (78:22, v/v) with isocratic elution at pH of 2.0–2.1 using a flow rate of 1.0 mL/min. The sample reservoir and column oven were maintained at 4 °C and 25 °C, respectively. The analytes were detected using a UV detector with the wavelength set at 220 nm, and the injection volume was 25 μL.
The aqueous supernatant (approximately 100 μL) was prepared as the final sample extract after rinsing with 600 μL of chloroform.
The recovery of the sample preparation method was estimated by dividing the peak area for the pre-spiked sample by the peak area for the post-spiked sample, multiplied by 100. […] Short- and long-term stability was evaluated after storage at 4 °C for 36 h and −70 °C for 24 days. Freeze-thaw stability was assessed with three freeze-thaw cycles at −70 °C. The post-preparation stability was also examined at 4 °C for 24 h.

[2] = tested on: SARS-CoV-2 (COVID-19); details: read-out: Half-maximal inhibitory concentration (IC50) against SARS-CoV-2; in vitro; preventing viruses' entrance into the cytoplasm; cited from earlier work
[3] = Post-preparation stability of teicoplanin and IS mixture (processed plasma extract); format: physicochemical, human; details: mean ± SD, n = 3
[4] = cited from earlier work

Q: With polymyxin B [IS] as the substance, how does the “Stability −70 °C, 24-d (%)” value ([1]; long-term, human plasma, IS 100 mg/L, peak area of polymyxin B2, HPLC-UV 220 nm) read?
A: The value was 112.2 ± 8.74%.

Q: And the “Stability 4 °C, 36 h (%)” value ([1]; short-term, human plasma, IS 100 mg/L (polymyxin B mixture), peak area of polymyxin B2, HPLC-UV 220 nm)?
A: The value was 96.19 ± 2.79%.

Q: And the “Stability Freeze-Thaw (%)” value ([1]; three freeze-thaw cycles at −70 °C, human plasma, IS 100 mg/L, peak area of polymyxin B2, HPLC-UV)?
A: The value was 111.5 ± 7.36%.

Q: With teicoplanin as the substance, how does the pIC50 [2] read?
A: The pIC50 was 5.78.

Q: With teicoplanin A2-2 as the substance, how does the “Stability Post-preparation, 7-D (%)” value ([3]; Table S1, H, 500.0 mg/L) read?
A: Its value is 102.58 ± 7.60%.

Q: What about the “Stability Post-preparation, 7-D (%)” value ([3]; Table S1, L, 7.81 mg/L) of the same substance?
A: The value was 108.56 ± 24.10%.

Q: What about the “Stability Post-preparation, 7-D (%)” value ([3]; Table S1, M, 62.5 mg/L) of the same substance?
A: The value was 105.94 ± 2.00%.

Q: What about the “Stability 4℃, 5-D (%)” value ([1]; H, 500.0 mg/L) of the same substance?
A: The value was 101.84 ± 1.59%.

Q: What about the “Stability 4℃, 5-D (%)” value ([1]; L, 7.81 mg/L) of the same substance?
A: Its value is 100.96 ± 11.32%.

Q: For vancomycin, which Half-life [4] is on record?
A: The Half-life was ~10 h.
